Measurements reported in patent US10344330B2, “Glatiramer acetate response biomarker mRNA potency assay” (Mylan Inc., priority 2013, dated 2019).

B1: MBP: myelin basic protein, a negative control (protein, UniProt P02686 1-304, looked up)
Myelin basic protein: MGNHAGKRELNAEKASTNSETNRGESEKKRNLGELSRTTSEDNEVFGEADANQNNGTSSQDTAVTDSKRTADPKNAWQDAHPADPGSRPHLIRLFSRDAPGREDNTFKDRPSESDELQTIQEDSAATSESLDVMASQKRPSQRHGSKYLATASTMDHARHGFLPRHRDTGILDSIGRFFGGDRGAPKRGSGKDSHHPARTAHYGSLPQKSHGRTQDENPVVHFFKNIVTPRTPPPSQGKGRGLSLSRFSWGAEGQRPGFGYGGRASDYKSAHKGFKGVDAQGTLSKIFKLGGRDSRSGSPMARR

Legend:
Assay type in all cases: cell-based, mouse
[1] = system: IL-5 secreted by LN cells; experiment: IL-5 secretion by GA-stimulated LN cells, MSD 9-plex ELISA (Example II); conditions: for IL-5 secretion response ratio (treated cell medium to control DCCM1 medium): 21 hr
Procedure: (§1) Animals at 8 weeks of age were immunized by injection into four footpads using a 1 mL syringe with a 27-G, 1⁄2-inch needle. […] Ten days post-immunization, immunized animals were sacrificed via cervical dislocation. […] The LN cells were isolated by pressing the LN with the plunger end of a sterile syringe. […] Trypan blue exclusion method was used to determine the cell density of viable cells in the suspension. […] Cat. […] LN cells were plated into a 24-well tissue culture plate for drug stimulation. […] Cell debris was removed by centrifugation at ca. 200×g for 10 minutes at 4° C. Cytokines secreted by treated cells were determined on the day of collection by ELISA using mouse TH 1/TH 2 9-Plex Tissue Culture Kit (Meso Scale Discovery; Cat No. […]-2, Lot #: K0032839) which detects Th1 cytokines (IFN-γ, IL-2, IL-12, IL-1β, TNF-α, CXCL1) and Th2 cytokines (IL-4, IL-5 and IL-10). For IFN-γ, culture media also were assayed at 45 hours using mouse IFN-γ Tissue Culture Kit (Meso Scale Discovery; Cat No. […] For the positive control, 0.5 mL of LN cells (5×10^6 cells/well) were treated with 0.5 mL of ConA (5 μg/mL). For the negative control, 0.5 mL of LN cells (5×10^6 cells/well) were treated with 0.5 mL of MBP (20 μg/mL). The LN cells with mock stimulation (enriched DCCM1 medium) were used to monitor the background level of a cytokine. For the cytokine assays, calibration standards or samples were incubated in the MULTI-SPOT or the SINGLE-SPOT plate and each cytokine bound to its corresponding capture antibody. All test samples were run in duplicate. The amount of each cytokine on its distinct spot was quantified using a cytokine-specific detection antibody labeled with MSD SULFO-TAGTM reagent. Electrochemiluminescent signals from immobilized SULFO-TAGTM-labeled complexes on each spot from each well were captured by the MSD SECTOR Imager 6000, which produces a signal directly proportional to the amount of captured cytokine in a test sample. The levels of cytokines in test samples were derived by interpolation from calibration curves with calibration standards of known concentrations using reagents provided with the MSD kits. Kits were used according to the manufacturer's protocols. […] Data are expressed as a response ratio of cytokine concentration in treated cell medium to control DCCM1 medium.

[2] = system: mIL-5 mRNA in primary LN cells; experiment: mIL-5 mRNA by real-time PCR in stimulated LN cells of immunized (SJL/J×BALB/C)F1 mice (Example I); conditions: for mIL-5 mRNA Level: Experiment 1, GA-immunized (SJL/J×BALB/C)F1; for mIL-5 mRNA: not normalized to a reference gene
Procedure: For each of the three experiments summarized in Table 1, female (SJL/J×BALB/C) F1 hybrid (Jackson Laboratory) mice were immunized by footpad injection with either 250 μg GMA (Mylan Pharmaceuticals, Inc.) and CFA (Sigma Aldrich), or Mannitol and CFA (as a negative control). The GA solution was diluted to 5 mg/mL with Dulbecco's Phosphate-buffered saline. A dose solution was then prepared by mixing the diluted GA solution (5 mg/mL) and CFA (1:1) until well-emulsified. Each mouse received a total injection volume of 0.1 mL (250 μg GA). Animals were immunized on Day 0. Immunized animals were sacrificed via cervical dislocation on Day 10 following immunization. […] The LN were washed 3 times with −5 mL of RPMI medium, and the LN cells isolated by pressing the LN with a syringe plunger. […] The cell suspension was centrifuged at about 200×g for 10 minutes at about 4° C. and re-suspended in ice cold enriched DCCM-1 medium. The LN cells (2.5×10^6 cells/cm^2) were plated in the wells of a 48-well tissue culture plate and stimulated with GA or controls.
Expression of cytokine mRNA was quantitatively analyzed using a Real-Time PCR system (7500, Applied Biosystems).
(DCCM1 from Beit Haemek Ltd.; Cat. No. 05 010 1A). There was no MBP treatment for the 2-hour groups.
Group 1B animals were female (SJL/J×BALB/C) F1 hybrid (Jackson Laboratory) mice immunized by footpad injection with either 250 μg GA and CFA, or Mannitol and CFA (as a negative control). A dose solution was prepared by mixing a diluted GA solution (5 mg/mL) and CFA (1:1). Each mouse received a total injection volume of […] (250 μg GA). Animals were immunized on Day 0. Immunized animals were sacrificed via cervical dislocation on Day 10 following immunization. Lymph nodes from immunized mice were removed and isolated. LN cells (2.5×10^6 cells/cm^2) were plated in the wells of a 48-well tissue culture plate for stimulation with GA.
Expression of cytokine mRNA was quantitatively analyzed 4 and 6 hours after using a Real-Time PCR system (7500, Applied Biosystems).

[3] = system: TNF-α secreted by LN cells; experiment: TNF-α secretion by GA-stimulated LN cells, MSD 9-plex ELISA (Example II); conditions: for TNF-α secretion response ratio (treated cell medium to control DCCM1 medium): 21 hr
Procedure: as §1

[4] = system: IL-1b secreted by LN cells; experiment: IL-1b secretion by GA-stimulated LN cells, MSD 9-plex ELISA (Example II); conditions: for IL-1b secretion response ratio (treated cell medium to control DCCM1 medium): 21 hr
[5] = 2 hour post stimulation, GA 10, ConA 2.5 μg/mL
[6] = 4 hour post stimulation, GA 10, MBP 10, ConA 2.5 μg/mL
[7] = 6 hour post stimulation, GA 10, MBP 10, ConA 2.5 μg/mL
[8] = 24 hour post stimulation, GA 10, MBP 10, ConA 2.5 μg/mL
[9] = Group 1B (GA + CFA), 4 hours post-stimulation, GA 10, MBP 10, ConA 2.5 μg/mL
[10] = Group 1B (GA + CFA), 6 hours post-stimulation, GA 10, MBP 10, ConA 2.5 μg/mL
[11] = Group 2B (Mannitol + CFA), 4 hours post-stimulation, GA 10, MBP 10, ConA 2.5 μg/mL
[12] = Group 2B (Mannitol + CFA), 6 hours post-stimulation, GA 10, MBP 10, ConA 2.5 μg/mL
[13] = BALB/cByJ, immunized GA Intraplantar
[14] = BALB/cByJ, immunized GA Lower Limb
[15] = BALB/cByJ, immunized Mannitol Intraplantar
[16] = C57BL10J, immunized GA Intraplantar
[17] = C57BL10J, immunized GA Lower Limb
[18] = C57BL10J, immunized Mannitol Intraplantar
[19] = CD-1, immunized GA Intraplantar
[20] = CD-1, immunized Mannitol Intraplantar

Row | Molecule | mIL-5 mRNA Level [2, 5] [fold change vs control] | mIL-5 mRNA Level [2, 6] [fold change vs control] | mIL-5 mRNA Level [2, 7] [fold change vs control] | mIL-5 mRNA Level [2, 8] [fold change vs control] | mIL-5 mRNA [2, 9] [fold change vs control] | mIL-5 mRNA [2, 10] [fold change vs control] | mIL-5 mRNA [2, 11] [fold change vs control] | mIL-5 mRNA [2, 12] [fold change vs control] | IL-5 secretion response ratio (treated cell medium to control DCCM1 medium) [1, 13] | IL-5 secretion response ratio (treated cell medium to control DCCM1 medium) [1, 14] | IL-5 secretion response ratio (treated cell medium to control DCCM1 medium) [1, 15] | IL-5 secretion response ratio (treated cell medium to control DCCM1 medium) [1, 16] | IL-5 secretion response ratio (treated cell medium to control DCCM1 medium) [1, 17] | IL-5 secretion response ratio (treated cell medium to control DCCM1 medium) [1, 18] | IL-5 secretion response ratio (treated cell medium to control DCCM1 medium) [1, 19] | IL-5 secretion response ratio (treated cell medium to control DCCM1 medium) ([1]; CD-1, immunized GA Lower Limb) | IL-5 secretion response ratio (treated cell medium to control DCCM1 medium) [1, 20] | TNF-α secretion response ratio (treated cell medium to control DCCM1 medium) [3, 13] | TNF-α secretion response ratio (treated cell medium to control DCCM1 medium) [3, 14] | TNF-α secretion response ratio (treated cell medium to control DCCM1 medium) [3, 15] | further results
1 | L-glutamic acid polymer with L-alanine, L-lysine and L-tyrosine, acetate (salt) [GA] | 1.6 | 4.8 | 5.1 | 1.9 | 4.0 | 4.3 | 1.0 | 1.2 |  |  |  |  |  |  |  |  |  |  |  |  | IL-5 secretion, dose response to GA (in words) ([1]; BALB/cByJ cells and CD1 cells): dose-dependent manner; mIL-5 mRNA level increase vs DCCM-1-stimulated control ([2]; Group 1B, 4 and 6 hours (text summary of Table 10)): at least 4 fold; TNF-α secretion, dose response to GA (in words) ([3]; cells from any of the three mouse strains): No dose response; IL-1β secretion, dose response to GA (in words) ([4]; BALB/cByJ and CD-1, primed by intraplantar injection): Dose response of IL-1β was detected
2 | Concanavalin A [ConA, reference compound] | 3.6 | 17.1 | 13.1 | 0.5 | 20.4 | 26.7 | 16.6 | 36.5 | 22.09 | 14.24 | 13.33 | 8.16 | 5.24 | 3.93 | 13.49 | 6.35 | 7.11 | 27.69 | 10.87 | 11.61 | TNF-α secretion response ratio (treated cell medium to control DCCM1 medium) [3, 16]: 2.53; TNF-α secretion response ratio (treated cell medium to control DCCM1 medium) [3, 17]: 2.02; TNF-α secretion response ratio (treated cell medium to control DCCM1 medium) [3, 18]: 2.10; TNF-α secretion response ratio (treated cell medium to control DCCM1 medium) [3, 19]: 17.59; TNF-α secretion response ratio (treated cell medium to control DCCM1 medium) ([3]; CD-1, immunized GA Lower Limb): 9.79; TNF-α secretion response ratio (treated cell medium to control DCCM1 medium) [3, 20]: 23.88; IL-1b secretion response ratio (treated cell medium to control DCCM1 medium) [4, 13]: 11.73; IL-1b secretion response ratio (treated cell medium to control DCCM1 medium) [4, 14]: 8.70; IL-1b secretion response ratio (treated cell medium to control DCCM1 medium) [4, 17]: 1.42; IL-1b secretion response ratio (treated cell medium to control DCCM1 medium) ([4]; CD-1, immunized GA Lower Limb): 2.86
3 | B1 |  | 0.8 | 0.2 | 0.8 | 1.4 | 0.9 | 1.1 | 1.1 | 1.22 | 0.99 | 1.07 | 1.31 | 0.85 | 0.99 | 1.33 | 1.00 | 1.16 | 0.98 | 1.07 | 1.10 | TNF-α secretion response ratio (treated cell medium to control DCCM1 medium) [3, 16]: 1.03; TNF-α secretion response ratio (treated cell medium to control DCCM1 medium) [3, 17]: 1.04; TNF-α secretion response ratio (treated cell medium to control DCCM1 medium) [3, 18]: 1.01; TNF-α secretion response ratio (treated cell medium to control DCCM1 medium) [3, 19]: 1.34; TNF-α secretion response ratio (treated cell medium to control DCCM1 medium) ([3]; CD-1, immunized GA Lower Limb): 1.54; TNF-α secretion response ratio (treated cell medium to control DCCM1 medium) [3, 20]: 1.51; IL-1b secretion response ratio (treated cell medium to control DCCM1 medium) [4, 13]: 1.15; IL-1b secretion response ratio (treated cell medium to control DCCM1 medium) [4, 14]: 0.96; IL-1b secretion response ratio (treated cell medium to control DCCM1 medium) [4, 17]: 1.17; IL-1b secretion response ratio (treated cell medium to control DCCM1 medium) ([4]; CD-1, immunized GA Lower Limb): 1.00
